Experimental data taken from patent publication US10350176B2 (priority 2013, dated 2019).
Where two headings read alike, the source gives them in different places.

Tests used:
[1] = test system: Leishmania major in promastigote form; assay: Promastigote growth inhibition assay (CellTiter-Blue); type: cell-based; details: 48 hours incubation; number of viable promastigotes reduced by 50%; read-out: L. major, in promastigote form (IC50)
Procedure: Antiparasitic activity in culture of promastigotes (insect form) was measured using a standard microdiluting method, determining the minimum inhibitory concentration (MIC) of the test sample, which leads to inhibition of parasite growth.
For promastigote growth inhibition assays the subculture 2 of L. major was cultured in Schneider's insect medium (Sigma, St. Louis, Mo., cat. No. S0146) supplemented with 50 μm/ml gentamicin (Sigma, St. Louis, Mo., cat. No. G1272), 63.7 μg/ml penicillin G (Sigma, St. Louis, Mo., cat. No. PENK), 100 μg/ml streptomycin (Sigma, St. Louis, Mo., cat. no. S6501), 2% human urine and 10% heat-inactivated fetal bovine serum (Sigma, St. Louis, Mo., cat. No. F2442).
Leishmania promastigotes in the logarithmic growth phase were dispensed into black 384-well plates (Corning, New York, N.Y., cat. No. 3571) at a concentration of 15,000 parasites/μl/well using a Multidrop Combi instrument (Thermo Fisher Scientific Inc., Waltham, Mass.). […] The metabolic capacity of the parasite was measured after 2.5 hours of incubation using the CellTiter-Blue® Reagent (Promega Corporation, Madison, Wis., cat. No. G8082) using EnVision Multilabel Reader (PerkinElmer Inc., Waltham, Mass.). Data were analyzed using non-linear regression (log (inhibitor) vs. response-variable slope). […]

[2] = test system: Leishmania major in amastigote form; assay: Cytotoxic effect on intracellular amastigotes in macrophages (flow cytometry, cell smears); type: cell-based; details: concentration at which number of infected macrophages decreased by 50%; 48 hours co-incubation
Procedure: Macrophage precursors were isolated from bone marrow and incubated for 7 days at 37° C. and 5% CO2 in DMEM supplemented with supernatant of L929 cells (20 percent by volume) containing M-CSF. After differentiation the macrophages were infected with E-GFP-L. major in stationary phase of growth at a ratio of 1:10. Then the macrophages were incubated in DMEM supplemented with the supernatant of L929 cells (20% volume) containing M-CSF at 37° C. and 5% CO2. After 24 hours, the medium containing the extracellular parasites was discarded and the plates were washed 3 times with HBSS medium (Hanks' Balanced Salt Solution, Sigma, St. Louis, Mo., cat. No. H9269). […]
The samples were analyzed on a FACSCalibur flow cytometer (Becton, Dickinson and Company, Franklin Lakes, N.J.) using CellQuest Pro software (Becton, Dickinson and Company, Franklin Lakes, N.J.). […] The results were measured for 10,000 macrophages in the first experiment and for 20,000 macrophages in the second experiment. […]
Smears were stained with Giemsa (Sigma, St. Louis, Mo., cat. No. 11700) and analysed by fluorescence microscopy Leica6000DM (Leica Microsystems GmbH, Wetzlar, Germany) at a magnification 400×. The total number of parasites in 500 macrophages was determined. […]

Leishmania major = details: primary screening, library compounds at 1 μM
Procedure: The compounds were screened for growth inhibition of the parasite Leishmania major.
The compounds were reformatted into 384-well polypropylene plates (Corning, cat. No. 3657) at a final concentration of 1 μM in DMSO and used to screen the growth inhibition of the parasite Leishmania major.

Plasmodium falciparum = details: kills Plasmodium falciparum; Yuan et al. Nat Chem Biol 2009; cited from earlier work
[3] = test system: CCD 841 (intestinal epithelial cells); details: DPI 9.8 nM-1.25 μM; 48 hours incubation
Procedure: (§1) Human cells CCD 841 (intestinal epithelial cells) and MRC5 (fetal lung fibroblasts) in appropriate growth media were dispensed into black 384-well plates (Corning, cat. No. 3571) at a density of 15,000 cells/25 μl/well using a Multidrop Combi (Thermo Scientific). After 48 hours incubation at 37° C. and 5% CO2, cell viability was determined using a commercial assay CellTiter Blue Cell Viability Assay (Promega, cat. No. G8082). […] Fluorescence intensity was measured by the detector (reader) EnVision (Perkin Elmer), and measured data were analysed using the software Prism5 (GraphPad Software, Inc.).

[4] = test system: MRC5 (fetal lung fibroblasts); details: DPI 9.8 nM-1.25 μM; 48 hours incubation
Procedure: as §1

[5] = test system: L. major, antimony salts resistant, in promastigote form; assay: Promastigote growth inhibition assay, strain resistant to antimony salts; type: cell-based, Leishmania major; details: 48 hours incubation
Procedure: Leishmania promastigotes in the logarithmic growth phase were dispensed into black 384-well plates (Corning, New York, N.Y., cat. No. 3571) at a concentration of 15,000 parasites/μl/well using a Multidrop Combi instrument (Thermo Fisher Scientific Inc., Waltham, Mass.). Immediately thereafter DPI (1 nM-500 nM) or amphotericin B (20 nM-10 μM) were added using “pitool” connected to JANUS® Automated Workstation (PerkinElmer Inc., Waltham, Mass.) and incubated for 48 hours. The metabolic capacity of the parasite was measured after 2.5 hours of incubation using the CellTiter-Blue® Reagent (Promega Corporation, Madison, Wis., cat. No. G8082) using EnVision Multilabel Reader (PerkinElmer Inc., Waltham, Mass.). Data were analyzed using non-linear regression (log (inhibitor) vs. response-variable slope). Preparation of the graphs and IC50 calculation were performed using GraphPad Prism 5 software (GraphPad Software, USA). The IC50 value was calculated by non-linear regression method as the concentration of DPI in which the number of viable promastigotes was reduced by 50% (values given below in Table 1).

c1ccc2c(c1)[I+]c1ccccc1-2 [DPI, [1,1′-biphenyl]-2,2′-diyliodonium]
IC50 [1]: 10 nM | L. major, in intracellular amastigote form (LD50, μM) [2]: 0.066 µM | growth inhibition of the parasite Leishmania major (Leishmania major): potent inhibitor of the growth of Leishmania major | growth inhibition of the parasite Leishmania major (Leishmania major; listed as diphenyleneiodonium (DPI)): effective inhibitor | IC50 (Plasmodium falciparum): 0.06 to 1 nM | viability of human CCD 841 cells [3]: no negative effect on the viability | viability of human MRC5 cells [4]: no negative effect on the viability | IC50 [5]: 15 nM

C[C@@H]1[C@H](O)[C@@H](C)/C=C/C=C/C=C/C=C/C=C/C=C/C=C/[C@H](O[C@@H]2O[C@H](C)[C@@H](O)[C@H](N)[C@@H]2O)C[C@@H]2O[C@](O)(C[C@@H](O)C[C@@H](O)[C@H](O)CC[C@@H](O)C[C@@H](O)CC(=O)O[C@H]1C)C[C@H](O)[C@H]2C(=O)O [amphotericin B, reference compound]
IC50 [1]: 39 nM | L. major, in intracellular amastigote form (LD50, μM) [2]: 0.143 µM | IC50 [5]: 43 nM
